From ChEMBL document CHEMBL3797052 (Eur J Med Chem, 2016)

Experiments:
Assay type in all cases: functional
[1] = Cytotoxicity against human HCT116 cells assessed as growth inhibition at 100 uM after 2 days by MTT assay; conditions: HCT-116, 48 h, read-out: GI
[2] = Cytotoxicity against human HCT116 cells assessed as growth inhibition at 10 uM after 2 days by MTT assay; conditions: HCT-116, 48 h, read-out: GI
[3] = Cytotoxicity against human SKBR3 cells assessed as growth inhibition at 100 uM after 2 days by MTT assay; conditions: SK-BR-3, 48 h, read-out: GI
[4] = Cytotoxicity against human SKBR3 cells assessed as growth inhibition at 10 uM after 2 days by MTT assay; conditions: SK-BR-3, 48 h, read-out: GI
[5] = Antiproliferative activity against human MOLT4 cells assessed as cell growth at 10^-5 M after 48 hrs by sulforhodamine B assay; conditions: MOLT-4, 48 h, read-out: Activity
SR = assay: Antiproliferative activity against human SR cells assessed as cell growth at 10^-5 M after 48 hrs by sulforhodamine B assay; conditions: read-out: Activity
A549 = assay: Antiproliferative activity against human A549/ATCC cells assessed as cell growth at 10^-5 M after 48 hrs by sulforhodamine B assay; conditions: A549, 48 h, read-out: Activity
EKVX = assay: Antiproliferative activity against human EKVX cells assessed as cell growth at 10^-5 M after 48 hrs by sulforhodamine B assay; conditions: read-out: Activity
[6] = Antiproliferative activity against human HOP62 cells assessed as cell growth at 10^-5 M after 48 hrs by sulforhodamine B assay; conditions: HOP-62, 48 h, read-out: Activity
[7] = Antiproliferative activity against human HOP92 cells assessed as cell growth at 10^-5 M after 48 hrs by sulforhodamine B assay; conditions: HOP-92, 48 h, read-out: Activity
NCI-H226 = assay: Antiproliferative activity against human NCI-H226 cells assessed as cell growth at 10^-5 M after 48 hrs by sulforhodamine B assay; conditions: NCI-H226, 48 h, read-out: Activity
NCI-H322M = assay: Antiproliferative activity against human NCI-H322M cells assessed as cell growth at 10^-5 M after 48 hrs by sulforhodamine B assay; conditions: read-out: Activity
NCI-H460 = assay: Antiproliferative activity against human NCI-H460 cells assessed as cell growth at 10^-5 M after 48 hrs by sulforhodamine B assay; conditions: NCI-H460, 48 h, read-out: Activity
NCI-H522 = assay: Antiproliferative activity against human NCI-H522 cells assessed as cell growth at 10^-5 M after 48 hrs by sulforhodamine B assay; conditions: NCI-H522, 48 h, read-out: Activity
[8] = Antiproliferative activity against human COLO205 cells assessed as cell growth at 10^-5 M after 48 hrs by sulforhodamine B assay; conditions: COLO 205, 48 h, read-out: Activity
[9] = Antiproliferative activity against human HCC2998 cells assessed as cell growth at 10^-5 M after 48 hrs by sulforhodamine B assay; conditions: HCC 2998, 48 h, read-out: Activity
[10] = Antiproliferative activity against human HCT116 cells assessed as cell growth at 10^-5 M after 48 hrs by sulforhodamine B assay; conditions: HCT-116, 48 h, read-out: Activity
[11] = Antiproliferative activity against human HCT15 cells assessed as cell growth at 10^-5 M after 48 hrs by sulforhodamine B assay; conditions: HCT-15, 48 h, read-out: Activity
KM12 = assay: Antiproliferative activity against human KM12 cells assessed as cell growth at 10^-5 M after 48 hrs by sulforhodamine B assay; conditions: KM12, 48 h, read-out: Activity
[12] = Antiproliferative activity against human SF295 cells assessed as cell growth at 10^-5 M after 48 hrs by sulforhodamine B assay; conditions: SF-295, 48 h, read-out: Activity
[13] = Antiproliferative activity against human SNB19 cells assessed as cell growth at 10^-5 M after 48 hrs by sulforhodamine B assay; conditions: SNB-19, 48 h, read-out: Activity
[14] = Antiproliferative activity against human SNB75 cells assessed as cell growth at 10^-5 M after 48 hrs by sulforhodamine B assay; conditions: SNB-75, 48 h, read-out: Activity
[15] = Antiproliferative activity against human LOXIMVI cells assessed as cell growth at 10^-5 M after 48 hrs by sulforhodamine B assay; conditions: LOX IMVI, read-out: Activity
Malme-3M = assay: Antiproliferative activity against human MALME-3M cells assessed as cell growth at 10^-5 M after 48 hrs by sulforhodamine B assay; conditions: read-out: Activity
MDA-MB-435 = assay: Antiproliferative activity against human MDA-MB-435 cells assessed as cell growth at 10^-5 M after 48 hrs by sulforhodamine B assay; conditions: MDA-MB-435, 48 h, read-out: Activity
[16] = Antiproliferative activity against human UACC62 cells assessed as cell growth at 10^-5 M after 48 hrs by sulforhodamine B assay; conditions: UACC-62, 48 h, read-out: Activity
[17] = Antiproliferative activity against human IGROV1 cells assessed as cell growth at 10^-5 M after 48 hrs by sulforhodamine B assay; conditions: IGROV-1, 48 h, read-out: Activity
[18] = Antiproliferative activity against human OVCAR3 cells assessed as cell growth at 10^-5 M after 48 hrs by sulforhodamine B assay; conditions: OVCAR-3, 48 h, read-out: Activity
[19] = Antiproliferative activity against human OVCAR5 cells assessed as cell growth at 10^-5 M after 48 hrs by sulforhodamine B assay; conditions: OVCAR-5, 48 h, read-out: Activity
786-0 = assay: Antiproliferative activity against human 786-0 cells assessed as cell growth at 10^-5 M after 48 hrs by sulforhodamine B assay; conditions: 786-0, 48 h, read-out: Activity
[20] = Antiproliferative activity against human UO31 cells assessed as cell growth at 10^-5 M after 48 hrs by sulforhodamine B assay; conditions: UO-31, 48 h, read-out: Activity
[21] = Antiproliferative activity against human PC3 cells assessed as cell growth at 10^-5 M after 48 hrs by sulforhodamine B assay; conditions: PC-3, 48 h, read-out: Activity
[22] = Antiproliferative activity against human DU145 cells assessed as cell growth at 10^-5 M after 48 hrs by sulforhodamine B assay; conditions: DU-145, 48 h, read-out: Activity
MDA-MB-231 = assay: Antiproliferative activity against human MDA-MB-231 cells assessed as cell growth at 10^-5 M after 48 hrs by sulforhodamine B assay; conditions: MDA-MB-231, 48 h, read-out: Activity
[23] = Antiproliferative activity against human Hs 578T cells assessed as cell growth at 10^-5 M after 48 hrs by sulforhodamine B assay; conditions: read-out: Activity
[24] = Antiproliferative activity against human BT549 cells assessed as cell growth at 10^-5 M after 48 hrs by sulforhodamine B assay; conditions: BT-549, 48 h, read-out: Activity
T47D = assay: Antiproliferative activity against human T47D cells assessed as cell growth at 10^-5 M after 48 hrs by sulforhodamine B assay; conditions: read-out: Activity

Row | SMILES | inhibition of growth at 100 µM [1] | inhibition of growth at 10 µM [2] | inhibition of growth at 100 µM [3] | inhibition of growth at 10 µM [4] | growth at 10 µM [5] | growth at 10 µM (SR) | growth at 10 µM (A549) | growth at 10 µM (EKVX) | growth at 10 µM [6] | growth at 10 µM [7] | growth at 10 µM (NCI-H226) | growth at 10 µM (NCI-H322M) | growth at 10 µM (NCI-H460) | growth at 10 µM (NCI-H522) | growth at 10 µM [8] | growth at 10 µM [9] | growth at 10 µM [10] | growth at 10 µM [11] | growth at 10 µM (KM12) | growth at 10 µM [12] | other results
1 | CNC(=O)c1cc(Oc2ccc3nc(NC(=O)c4cccc(F)n4)sc3c2)ccn1 | 55.5% | 10.8% | 89.4% | 12.5% | 80.8% | 55.9% | 75.2% | 90% | 90% | 81.4% | 76.3% | 92.8% | 89.5% | 69.8% | 105% | 114% | 80.5% | 92.2% | 87.5% | 89.1% | growth at 10 µM [13]: 88.6%; growth at 10 µM [14]: 105%; growth at 10 µM [15]: 84.8%; growth at 10 µM (Malme-3M): 98.2%; growth at 10 µM (MDA-MB-435): 100%; growth at 10 µM [16]: 78%; growth at 10 µM [17]: 101%; growth at 10 µM [18]: 95.5%; growth at 10 µM [19]: 128%; growth at 10 µM (786-0): 86%; growth at 10 µM [20]: 67.1%; growth at 10 µM [21]: 73%; growth at 10 µM [22]: 99.2%; growth at 10 µM (MDA-MB-231): 86%; growth at 10 µM [23]: 92.7%; growth at 10 µM [24]: 74.6%; growth at 10 µM (T47D): 84.8%
2 | CNC(=O)c1cc(Oc2ccc3nc(NC(=O)Nc4ccc(C(F)(F)F)cc4)sc3c2)ccn1 | 74.9% | 64.8% | 79.6% | 69.9% | 73.3% | 70.6% | 1.79% | 53.5% | 67.3% | 74.4% | 85.6% | 80.5% | 33.4% | 42.4% | 58.8% | 104% | 7.67% | 54.2% | 65% | 63.2% | growth at 10 µM [13]: 79.3%; growth at 10 µM [14]: 29.1%; growth at 10 µM [15]: 48.1%; growth at 10 µM (Malme-3M): 20.8%; growth at 10 µM (MDA-MB-435): 40.9%; growth at 10 µM [16]: 56%; growth at 10 µM [17]: 70.9%; growth at 10 µM [18]: 24%; growth at 10 µM [19]: 93.9%; growth at 10 µM (786-0): 35.5%; growth at 10 µM [20]: 65%; growth at 10 µM [21]: 58.8%; growth at 10 µM [22]: 48.9%; growth at 10 µM (MDA-MB-231): 63.5%; growth at 10 µM [23]: 30%; growth at 10 µM [24]: 62.3%; growth at 10 µM (T47D): 44.8%
3 | CNC(=O)c1cc(Oc2ccc3nc(NC(=O)Nc4ccc(F)cc4F)sc3c2)ccn1 | 86.3% | 56.9% | 79.5% | 61.6% | 82.4% | 80.4% | 44.8% | 89.8% | 60.7% | -13.7% | 52.8% | 62.2% | 63% | 68.7% | 87.1% | 88.1% | 20.7% | 84% | 72.6% | 76.7% | growth at 10 µM [13]: 71.1%; growth at 10 µM [14]: 19.2%; growth at 10 µM [15]: 52.1%; growth at 10 µM (Malme-3M): 46.2%; growth at 10 µM (MDA-MB-435): 62.5%; growth at 10 µM [16]: 65.1%; growth at 10 µM [17]: 84.2%; growth at 10 µM [18]: 74.7%; growth at 10 µM [19]: 95.2%; growth at 10 µM (786-0): 64%; growth at 10 µM [20]: 91.4%; growth at 10 µM [21]: 65.9%; growth at 10 µM [22]: 65.7%; growth at 10 µM (MDA-MB-231): 47.6%; growth at 10 µM [23]: 44.5%; growth at 10 µM [24]: 100%; growth at 10 µM (T47D): 56.5%
